In patent US5444049A, “Peptide compounds derived from boronic acid” (Adir et Compagnie, priority 1993, dated 1995):
Like-named read-outs stand apart in the source and are kept apart here.

How the values were obtained:
[1] = tested on: OFA rats; assay: Anticoagulant activity ex vivo, oral administration (conscious rats), thrombin time; type: in vivo, rat; conditions: 10 mg/kg orally
Procedure: Fasted OFA rats are anesthetized with ether. The cordal artery is exposed and catheterized. The catheter is flushed with citrated (1/40) physiological solution. After installation of the catheter, the animal is placed in a restraining cage and 1.5 cm^3 of arterial blood are withdrawn into 0.109M citrate (1/9).
1 hour after the animal has awoken, the test products are administered orally at a single dose of 10 mg/kg.
Arterial blood samples (1.5 ml) are then withdrawn at 30 minutes, 60 minutes and 2 hours.
As each sample is withdrawn, 1.5 ml of physio-logical solution are reinjected into the animals.
The blood tubes are centrifuged for 15 minutes at 3000 g for preparation of the plasma. The time of onset of the coagulation phenomenon is measured after adding Prest thrombin.
The results are reproduced in the following table, and show the factors by which the thrombin time is increased.

[2] = tested on: OFA rats; assay: Anticoagulant activity ex vivo, intravenous administration, activated cephalin time; type: in vivo, rat; conditions: 0.5 mg/kg i.v.
Procedure: OFA rats, fasted or otherwise, are anesthetized with pentobarbital (60 mg/kg i.p.). The carotid artery and the jugular vein are exposed and catheterized. The catheters are flushed with citrated (1/40) physiological solution. After installation of the catheters, a sample of 1.5 cm^3 of arterial blood is withdrawn into 0.109M citrate (1/9).
30 minutes later, the test product is administered i.v. in a volume of 1 ml.
Arterial blood samples (1.5 ml) are then withdrawn at 1 minute 30 sec and 5, 15, 30 and 60 minutes.
As each sample is withdrawn, 1.5 ml of citrated physiological solution are reinjected into the animal via the carotid.
The blood tubes are centrifuged for 15 minutes at 3000 g (preparation of plasma). 100 μl of plasma are incubated with 100 gl of activated cephalin. The time of onset of the coagulation phenomenon is measured after adding 100 μl of calcium.
The compounds of the invention, tested at a dose of 0.5 mg/kg, increase the activated cephalin time (ACT) in a dose-dependent manner. […] The increase in ACT noted with the compounds of the invention is still significant 60 minutes after their administration. The results are reproduced in the following table, and show the factors by which the coagulation time is increased.

[3] = tested on: thrombin time of rat platelet-poor plasma; assay: Anticoagulant activity: thrombin time in rat plasma; type: biochemical; conditions: for Rat CTT2 (concentration which multiplies the thrombin time by 2): rat plasma, 2 minutes at 37° C.
Procedure: (§1) In the presence of a standard quantity of thrombin, a normal plasma coagulates in a defined and constant time, termed the thrombin time (TT). Any prolongation of this time reflects an abnormality of fibrin formation (coagulation).
(§2) Sprague-Dawley rats are anesthetized with pentobarbital sodium (60 mg/kg i.p.), the carotid artery is catheterized and blood samples are taken into trisodium citrate solution (0.109M). A platelet-poor plasma is obtained by centrifugation of the blood samples (3000 g, 15 minutes). Samples of venous blood are also taken from humans at the bend of the arm. Anticoagulation of the samples and preparation of platelet-poor plasma are identical to those carried out with rat blood.
(§3) The thrombin time is obtained with Prest thrombin reagent and determined automatically using a coagulometer.
(§4) The antagonist or the solvent (10 μl) is added to the plasma (90 μl) and then incubated for 2 minutes at 37° C. 100 µl of thrombin are added as the chronometer is started.
(§5) Under these conditions, the TT values obtained in the control plasma are of the order of 30 seconds in rats and 20 seconds in humans. The activity of an antagonist is evaluated by its capacity to prolong this thrombin time relative to the control.
(§6) Under these conditions, the compounds of the invention permit a prolongation of the thrombin time of 50-fold and more. The effect of the inhibitors is measured, and the concentration which multiplies the thrombin time by 2 (CTT2) is determined.

[4] = tested on: OFA rats; assay: Anticoagulant activity ex vivo, intravenous administration, activated cephalin time; type: in vivo, rat; conditions: 0.5 mg/kg i.v., 15.5 min
[5] = tested on: thrombin time of human platelet-poor plasma; assay: Anticoagulant activity: thrombin time in human plasma; type: biochemical; conditions: for Man CTT2 (concentration which multiplies the thrombin time by 2): human plasma, 2 minutes at 37° C.
Procedure: as §1, §2, §3, §4, §5, §6

[6] = target: T1, purified human plasma kallikrein (Homo sapiens, UniProt P03952); assay: Inhibition of plasma kallikrein; type: biochemical; conditions: substrate S 2302; read-out: IC50 Kalli
T1 construct: to purified human plasma kallikrein (2 nM, Calbiochem); purchased Calbiochem
Procedure: (§7) To evaluate in vitro the selectivity of these products with respect to different serine proteases of fibrinolysis and of coagulation, the same protocol was applied to purified human plasmin (2 nM, Stago), to purified human activated protein C (2 nM, Stago), to purified human activated factor X (2 nM, Stago), to tissue plasminogen activator (2 nM, Calbiochem), to purified human urokinase (2 nM, Sigma) and to purified human plasma kallikrein (2 nM, Calbiochem), using different peptidyl para-nitroanilides as substrate: <Glu-Phe-Lys-pNA (0.50 mM, S 2403, Kabi) for plasmin, N-Cbo-Arg-Gly-Arg-pNA (0.38 mM, S 2765, Kabi) for factor Xa, <Glu-Pro-Arg-pNa (0.52 mM, S 2366, Kabi) for activated protein C, H-D-Pro-Phe-Arg-pNa (0.45 mM, S 2302, Kabi) for kallikrein, H-D-Ile-Pro-Arg-pNA (0.48 mM, S 2288, Kabi), <Glu-Gly-Arg-pNA (0.56 mM, S 2444, Kabi).
(§8) Inhibitors, enzymes and substrates are diluted in the same buffer ([…] buffer, pH 7.4, containing 0.12M sodium chloride and 0.05% of bovine serum albumin), and then distributed in a polystyrene microplate in a volume of […].
(§9) The fibrin formed by thrombin or by the para-nitroaniline liberated by the action of the serine protease is measured spectrophotometrically at 405 nm after 15 to 30 minutes of reaction at 20° C.

[7] = target: T2, human thrombin (Homo sapiens, UniProt P00734); assay: Inhibition of human thrombin (fibrinogen or S2238 substrate); type: biochemical; conditions: for IC50: 20° C.; for selectivity with respect to the serine proteases of coagulation and of fibrinolysis compared with DUP 714: thrombin versus other serine proteases; for potency on human thrombin compared with DUP 714: with respect to human fibrinogen
T2 construct: human thrombin (Sigma, specific activity 3230 NIHU/mg); purchased Sigma
Procedure: To evaluate in vitro the inhibitory activity of the boro-arginine products with respect to human thrombin (Sigma, specific activity 3230 NIHU/mg), purified human fibrinogen ([…], Stago) (Fg) or the chromogenic substrate H-D-Phe-Pip-Arg-pNa ([…], S2238, Kabi) was added to a given quantity of thrombin (0.7 or 2 nM) incubated beforehand with or without the inhibitor under test (20° C., 10 minutes).
as §8, §9

[8] = tested on: dogs; assay: Anticoagulant activity p.o. in dogs, thrombin time; type: in vivo, dog
Procedure: (§10) The products were administered orally to dogs.2 hours and 4 hours after the treatment, and blood was withdrawn via the intravenous route. The plasma is prepared, platelets counted and the thrombin time test is carried out.

[9] = target: T3, purified human urokinase (Homo sapiens, UniProt P00749); assay: Inhibition of urokinase; type: biochemical; conditions: peptidyl para-nitroanilide substrate
T3 construct: purchased Sigma
Procedure: as §7, §8, §9

[10] = target: T4, purified human plasmin (Homo sapiens, UniProt P00747); assay: Inhibition of plasmin; type: biochemical; conditions: substrate S 2403
T4 construct: purified human plasmin (2 nM, Stago); purchased Stago
Procedure: as §7, §8, §9

[11] = target: T5, purified human activated factor X (Homo sapiens, UniProt P00742); assay: Inhibition of activated factor X; type: biochemical; conditions: substrate S 2765
T5 construct: purchased Stago
Procedure: as §7, §8, §9

[12] = target: T6, tissue plasminogen activator (Homo sapiens, UniProt P00750); assay: Inhibition of tissue plasminogen activator; type: biochemical; conditions: peptidyl para-nitroanilide substrate
T6 construct: purchased Calbiochem
Procedure: as §7, §8, §9

[13] = target: T7, purified human activated protein C (Homo sapiens, UniProt P04070); assay: Inhibition of activated protein C; type: biochemical; conditions: substrate S 2366
T7 construct: purchased Stago
Procedure: as §7, §8, §9

[14] = tested on: dogs; assay: Thrombopenia p.o. in dogs, platelet count; type: in vivo, dog
Procedure: as §10

[15] = chromogenic substrate S2238, read-out: IC50 Thrombin S2238
[16] = substrate purified human fibrinogen, read-out: IC50 Thrombin Fg

T7 sequence (P04070 212-461 limits assumed): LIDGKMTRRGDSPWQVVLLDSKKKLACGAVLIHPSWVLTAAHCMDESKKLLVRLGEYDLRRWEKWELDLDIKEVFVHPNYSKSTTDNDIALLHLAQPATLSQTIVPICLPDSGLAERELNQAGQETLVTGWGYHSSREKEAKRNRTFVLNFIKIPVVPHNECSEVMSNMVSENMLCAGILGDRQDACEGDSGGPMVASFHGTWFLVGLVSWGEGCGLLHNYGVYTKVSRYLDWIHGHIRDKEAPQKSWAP
T7 sequence (P04070 43-197 limits assumed): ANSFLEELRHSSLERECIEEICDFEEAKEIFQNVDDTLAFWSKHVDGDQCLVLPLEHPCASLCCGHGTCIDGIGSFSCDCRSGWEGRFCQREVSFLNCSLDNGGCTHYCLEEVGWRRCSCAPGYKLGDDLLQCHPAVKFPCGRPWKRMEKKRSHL
T4 sequence (P00747 581-810 limits assumed): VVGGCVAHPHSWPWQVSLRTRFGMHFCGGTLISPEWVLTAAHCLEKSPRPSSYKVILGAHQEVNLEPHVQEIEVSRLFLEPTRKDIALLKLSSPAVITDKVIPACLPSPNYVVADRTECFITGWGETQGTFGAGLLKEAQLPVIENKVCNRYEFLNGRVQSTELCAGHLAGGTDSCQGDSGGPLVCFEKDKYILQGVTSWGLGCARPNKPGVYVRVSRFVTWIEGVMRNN
T4 sequence (P00747 97-580 limits assumed): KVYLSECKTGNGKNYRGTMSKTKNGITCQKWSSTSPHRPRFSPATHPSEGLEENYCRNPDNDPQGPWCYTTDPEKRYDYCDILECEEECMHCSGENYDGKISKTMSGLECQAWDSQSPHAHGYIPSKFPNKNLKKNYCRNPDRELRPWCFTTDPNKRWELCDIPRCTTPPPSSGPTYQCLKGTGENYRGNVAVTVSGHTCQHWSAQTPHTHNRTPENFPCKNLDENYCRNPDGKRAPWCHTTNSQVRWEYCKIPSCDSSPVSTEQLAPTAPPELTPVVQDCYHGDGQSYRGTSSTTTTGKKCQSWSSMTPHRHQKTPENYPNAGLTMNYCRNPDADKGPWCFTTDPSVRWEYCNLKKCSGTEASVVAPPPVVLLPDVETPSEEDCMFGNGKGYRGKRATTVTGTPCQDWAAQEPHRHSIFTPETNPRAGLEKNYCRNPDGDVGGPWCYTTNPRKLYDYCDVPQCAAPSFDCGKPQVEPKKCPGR
T1 sequence (P03952 391-638 limits assumed): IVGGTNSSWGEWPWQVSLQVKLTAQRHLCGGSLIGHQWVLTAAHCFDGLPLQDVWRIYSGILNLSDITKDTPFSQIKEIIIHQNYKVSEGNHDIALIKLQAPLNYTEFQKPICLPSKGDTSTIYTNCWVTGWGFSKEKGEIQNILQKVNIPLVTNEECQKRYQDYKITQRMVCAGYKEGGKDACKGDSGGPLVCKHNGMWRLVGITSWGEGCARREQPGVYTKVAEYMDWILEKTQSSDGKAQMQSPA
T1 sequence (P03952 20-390 limits assumed): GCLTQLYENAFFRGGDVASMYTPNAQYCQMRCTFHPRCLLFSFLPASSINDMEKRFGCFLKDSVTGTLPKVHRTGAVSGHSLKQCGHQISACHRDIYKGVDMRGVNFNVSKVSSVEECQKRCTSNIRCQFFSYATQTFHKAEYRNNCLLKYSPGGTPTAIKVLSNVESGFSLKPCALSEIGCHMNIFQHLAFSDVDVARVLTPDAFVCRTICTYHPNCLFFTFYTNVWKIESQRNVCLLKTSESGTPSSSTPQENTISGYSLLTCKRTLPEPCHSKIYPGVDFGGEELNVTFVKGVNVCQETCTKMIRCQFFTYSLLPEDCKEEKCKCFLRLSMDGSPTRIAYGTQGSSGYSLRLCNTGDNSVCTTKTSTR
T6 sequence (P00750 36-562): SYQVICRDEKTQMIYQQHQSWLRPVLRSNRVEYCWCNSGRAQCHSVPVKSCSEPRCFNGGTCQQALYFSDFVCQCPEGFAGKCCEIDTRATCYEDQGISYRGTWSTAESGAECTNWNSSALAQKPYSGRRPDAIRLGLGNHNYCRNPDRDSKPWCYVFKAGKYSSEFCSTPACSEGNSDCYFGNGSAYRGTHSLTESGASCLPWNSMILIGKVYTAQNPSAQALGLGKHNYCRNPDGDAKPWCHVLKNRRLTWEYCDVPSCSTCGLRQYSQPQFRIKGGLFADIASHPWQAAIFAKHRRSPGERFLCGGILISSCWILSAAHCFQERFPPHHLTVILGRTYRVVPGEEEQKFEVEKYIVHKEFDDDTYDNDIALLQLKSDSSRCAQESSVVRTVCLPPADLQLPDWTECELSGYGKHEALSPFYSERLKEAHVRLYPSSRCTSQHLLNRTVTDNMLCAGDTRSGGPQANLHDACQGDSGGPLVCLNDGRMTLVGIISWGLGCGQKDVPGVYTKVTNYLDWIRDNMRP
T5 sequence (P00742 235-488 limits assumed): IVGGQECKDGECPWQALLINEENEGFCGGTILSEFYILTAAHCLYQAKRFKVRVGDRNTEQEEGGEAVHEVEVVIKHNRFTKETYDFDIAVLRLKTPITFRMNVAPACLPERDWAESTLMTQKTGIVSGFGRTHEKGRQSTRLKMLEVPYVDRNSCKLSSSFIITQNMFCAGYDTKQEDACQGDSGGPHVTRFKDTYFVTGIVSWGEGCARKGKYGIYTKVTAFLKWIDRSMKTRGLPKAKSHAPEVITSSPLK
T5 sequence (P00742 41-179 limits assumed): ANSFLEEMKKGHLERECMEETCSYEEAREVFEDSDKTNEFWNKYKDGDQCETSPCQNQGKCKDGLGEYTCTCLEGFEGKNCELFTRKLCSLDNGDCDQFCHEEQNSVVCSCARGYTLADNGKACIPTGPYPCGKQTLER

| Structure (SMILES) | factor by which the thrombin time is increased ([1]; 0.5 hours) | factor by which the thrombin time is increased ([1]; 1 hour) | factor by which the thrombin time is increased ([1]; 2 hours) | factor by which the coagulation time (ACT) is increased ([2]; 5 min) | factor by which the coagulation time (ACT) is increased ([2]; 15 min) | factor by which the coagulation time (ACT) is increased ([2]; 30 min) | factor by which the coagulation time (ACT) is increased ([2]; 60 min) | Rat CTT2 (concentration which multiplies the thrombin time by 2) [3] [µM] | factor by which the coagulation time (ACT) is increased [4] | Man CTT2 (concentration which multiplies the thrombin time by 2) [5] [µM] | IC50 [6] [µM] | IC50 [7, 15] [µM] | IC50 [7, 16] [µM] | selectivity with respect to the serine proteases of coagulation and of fibrinolysis compared with DUP 714 [7] | Increase factor TT ([8]; 5 mg/kg orally, 2 hr) | IC50 [9] [µM] | IC50 [10] [µM] | IC50 [11] [µM] | IC50 [12] [µM] | IC50 [13] [µM] | other results |
| --- | --- | --- | --- | --- | --- | --- | --- | --- | --- | --- | --- | --- | --- | --- | --- | --- | --- | --- | --- | --- | --- |
| CC(=O)NC(Cc1ccccc1)C(=O)N1C(C(=O)NC(CCCNC(=N)N)B(O)O)CC2CCCCC21.CC(=O)O (mixture of isomers) [Ex. 3, 1-(R)-[(Ac-(RS)Phe-Phi)amino]-4-guanidinobutylboronic acid acetate] | 7.7 | 7.1 | 5.6 | 4.7 | 3.6 | 2.6 | 2.0 | 0.23 | 7.3 | 0.07 | – | – | – | – | – | – | – | – | – | – | factor by which concentration for doubling the thrombin time is less than DUP 714 ([5]; humans): 2.5 |
| CC(=O)NC(Cc1ccccc1)C(=O)N1C2CCC(CC2)C1C(=O)NC(CCCNC(=N)N)B(O)O.CC(=O)O (mixture of isomers) [Ex. 23, 1-(R)-[(Ac-(RS)Phe-Abo)amino]-4-guanidinobutylboronic acid acetate] | – | – | – | – | – | – | – | 0.17 | – | 0.11 | – | – | – | – | – | – | – | – | – | – | concentration for doubling the thrombin time relative to DUP 714 ([3]; rats): one half |
| CC(=O)NC(Cc1ccccc1)C(=O)N(CC(=O)N[C@@H](CCCNC(=N)N)B(O)O)C1CCCC1.CC(=O)O (mixture of isomers) [Ex. 27, 1-(R)-{[Ac-(RS)Phe-(N-cyclopentyl)Gly]amino}-4-guanidinobutylboronic acid acetate] | – | – | – | 2.3 | 1.7 | 1.5 | 1.3 | – | 5 | 0.20 | 0.104 | 0.0025 | 0.00079 | greater selectivity | 11 | 3.18 | 0.735 | 1.76 | 0.038 | 0.149 | Increase factor TT ([8]; 5 mg/kg orally, 4 hr): 3; Change in platelet count (% of control) ([14]; 5 mg/kg orally, 2 hr): -4%; Change in platelet count (% of control) ([14]; 5 mg/kg orally, 4 hr): -1% |
| CC(=O)N[C@H](Cc1ccccc1)C(=O)N1CCC[C@H]1C(=O)N[C@@H](CCCN=C(N)N)B(O)O [DUP 714, Ac-(D)Phe-Pro-Arg-boronic acid, reference compound] | 4.0 | 3.7 | 3.9 | 3.4 | 2.0 | 1.7 | 1.4 | 0.32 | 7.6 | 0.18 | 0.008 | – | – | – | – | 0.024 | 0.028 | 0.041 | 0.008 | 0.017 | Increase factor TT ([8]; 2.5 mg/kg orally, 2 hr): 7; Increase factor TT ([8]; 2.5 mg/kg orally, 4 hr): 2; thrombopenia ([14]; 2.5 mg/kg orally): marked thrombopenia; Change in platelet count (% of control) ([14]; 2.5 mg/kg orally, 2 hr): -32%; Change in platelet count (% of control) ([14]; 2.5 mg/kg orally, 4 hr): -16% |
| CC(=O)N[C@H](Cc1ccccc1)C(=O)N(CC(=O)N[C@@H](CCCNC(=N)N)B(O)O)C1CCC1.CC(=O)O [Ex. 25, 1-(R)-{[Ac-(R)Phe-(N-cyclobutyl)Gly]amino}-4-guanidinobutylboronic acid acetate] | – | – | – | – | – | – | – | – | – | – | 0.075 | 0.002 | 0.00045 | greater selectivity | – | 1.64 | 0.818 | 0.356 | 0.014 | 0.211 | potency on human thrombin compared with DUP 714 [7]: more potent inhibitors of human thrombin than the reference compound |
| CC(=O)N[C@H](Cc1ccccc1)C(=O)N(CC(=O)N[C@@H](CCCN=C(N)N)B(O)O)C1CCCC1.CC(=O)O [Ex. 28, 1-(R)-{[Ac-(R)Phe-(N-cyclopentyl)Gly]amino}-4-guanidinobutylboronic acid acetate] | – | – | – | – | – | – | – | – | – | 0.19 | 0.091 | 0.002 | 0.00046 | greater selectivity | 11 | 1.82 | 0.445 | 0.225 | 0.047 | 0.082 | potency on human thrombin compared with DUP 714 [7]: more potent inhibitors of human thrombin than the reference compound; Increase factor TT ([8]; 5 mg/kg orally, 4 hr): 2; Change in platelet count (% of control) ([14]; 5 mg/kg orally, 2 hr): -4%; Change in platelet count (% of control) ([14]; 5 mg/kg orally, 4 hr): +1% |
